# From patent US10479997B2, “Compositions and methods for diagnosis and treatment of prostate cancer” (NOVARTIS AG, priority 2014, dated 2019)
# How the values were obtained:
# PRMT5 [1] = target: PRMT5 (Homo sapiens, UniProt O14744); details: substrate E2-F-1; cited from earlier work
# [2] = target: T1, PRMT5/MEP50 enzyme complex (Homo sapiens, UniProt O14744); experiment: in vitro biochemical assay: PRMT5/MEP50 enzyme complex with SAM and purified AR LBD (with or without ERG ETS domain); details: AR LBD/PRMT5 and AR LBD/PRMT5/ETS reactions
# T1 construct: purchased
# T1 sequence (O14744 whole entry, the tested form may be a part): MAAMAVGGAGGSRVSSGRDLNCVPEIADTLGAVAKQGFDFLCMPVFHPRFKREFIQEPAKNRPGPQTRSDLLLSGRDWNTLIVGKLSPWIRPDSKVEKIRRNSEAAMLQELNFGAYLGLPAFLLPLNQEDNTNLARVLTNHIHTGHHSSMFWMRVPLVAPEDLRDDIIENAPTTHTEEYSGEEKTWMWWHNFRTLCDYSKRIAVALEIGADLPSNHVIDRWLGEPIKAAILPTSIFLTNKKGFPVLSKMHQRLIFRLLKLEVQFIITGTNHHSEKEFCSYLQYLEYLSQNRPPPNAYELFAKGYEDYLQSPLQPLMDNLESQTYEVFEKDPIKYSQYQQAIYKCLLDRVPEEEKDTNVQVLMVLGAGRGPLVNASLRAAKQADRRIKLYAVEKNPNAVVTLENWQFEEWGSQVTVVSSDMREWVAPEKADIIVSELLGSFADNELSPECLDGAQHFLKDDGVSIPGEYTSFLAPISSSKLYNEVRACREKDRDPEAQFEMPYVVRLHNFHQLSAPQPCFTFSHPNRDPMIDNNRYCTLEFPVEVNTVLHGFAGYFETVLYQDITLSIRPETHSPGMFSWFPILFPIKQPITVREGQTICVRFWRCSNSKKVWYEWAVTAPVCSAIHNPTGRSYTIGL
# T1 sequence (Q9BQA1 whole entry partner, the tested form may be a part): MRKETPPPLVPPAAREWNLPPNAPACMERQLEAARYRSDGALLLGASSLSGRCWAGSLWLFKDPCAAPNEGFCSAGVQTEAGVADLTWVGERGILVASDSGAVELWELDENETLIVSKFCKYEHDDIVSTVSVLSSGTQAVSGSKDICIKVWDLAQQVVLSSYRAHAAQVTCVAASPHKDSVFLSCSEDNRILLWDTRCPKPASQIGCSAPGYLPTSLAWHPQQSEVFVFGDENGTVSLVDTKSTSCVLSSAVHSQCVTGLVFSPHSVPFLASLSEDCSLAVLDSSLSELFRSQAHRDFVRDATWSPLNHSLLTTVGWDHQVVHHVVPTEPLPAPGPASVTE
# Experimental: To test whether ERG is a substrate of PRMT5, we used 22Rv1 cells to express and immunoprecipitate ERG in the presence and absence of PRMT5. Using a recently generated antibody specific for symmetric dimethyl arginine modification, we verified ERG arginine methylation levels and only observed a faint band which was not altered following PRMT5 knockdown (data not shown). To confirm these findings, we performed in vitro biochemical assays in which we incubated increasing amounts of commercial PRMT5/MEP50 enzyme complex with the methyl donor S-Adenosyl-Methionine (SAM) and either the pointed (PNT) domain or ETS domain of ERG as possible substrates of PRMT5. As a measure of PRMT5 catalytic activity and usage of the methyl donor SAM for substrate methylation, we evaluated and quantified by mass spectrometry the amount of S-Adenosyl-Homocysteine (SAH) produced (data not shown). […] To investigate whether the ligand binding domain (LBD) of AR is a direct substrate of PRMT5, we performed a series of in vitro biochemical assays in which we incubated the PRMT5/MEP50 enzyme complex with the methyl donor S-Adenosyl-Methionine (SAM) and purified AR LBD. […]
# PRMT5 [3] = details: shRNAs disclosed in U.S. Patent Application No. 62/049,004; cited from earlier work
# Chain of PRMT5 (Homo sapiens, UniProt O14744) (O14744 whole entry, the tested form may be a part): as the sequence (O14744 whole entry, the tested form may be a part) above
# Chain of PRMT5 (Homo sapiens, UniProt O14744) (Q9BQA1 whole entry partner, the tested form may be a part): as the sequence (Q9BQA1 whole entry partner, the tested form may be a part) above
Molecule,effectiveness of shRNA to PRMT5 (PRMT5 [3]),other results
"Nc1ncnc2c1ncn2[C@@H]1O[C@H](C[C@@H](N)CC[C@H](N)C(=O)O)C(O)C1O (stereo in doubt) [Sinefungin, 5′-Deoxy-5′-(1,4-diamino-4-carboxybutyl)adenosine]",,inhibition of PRMT5 activity (PRMT5 [1]): inhibits PRMT5 activity
O=C(Nc1ccc2c(O)cc(S(=O)(=O)O)cc2c1)Nc1ccc2c(O)cc(S(=O)(=O)O)cc2c1 [AMI-1],,AR mono-methylation levels ([2]; arginine mono-methyl antibody): completely blocked; SAH production ([2]; measured by mass spectrometry): completely blocked
"sh4736: PRMT5 shRNA, target sequence GCGGATAAAGCTGTATGCTGT (SEQ ID NO: 11) (the letters are possibly those of the target site)",most effective,
"sh4737: PRMT5 shRNA, target sequence GCCAAGTGACCGTAGTCTCAT (SEQ ID NO: 15)",most effective,
"sh4738: PRMT5 shRNA, target sequence GCCATCCCAACAGAGATCCTA (SEQ ID NO: 8) (the letters are possibly those of the target site)",also effective,
